Data as given in patent US12064516B2, “Pharmaceutical formulations and uses thereof” (Aldeyra Therapeutics, Inc., priority 2020, dated 2024).
Read-outs that look alike come from different tables or passages of the source.

Assay: Pharmacokinetics of compound I-1 in the dog by intravenous, oral gavage and oral capsule routes
Format: in vivo, beagle dogs
Details: male, beagle, dog, plasma; for concentration at 4 h / concentration at 8 h / concentration at 12 h / concentration at 0.25 h / concentration at 0.5 h / concentration at 1 h / concentration at 2 h: read-out: Concentration at time point; for bioavailability: read-out: BioA (bioavailability)
Method: A pharmacokinetic study was conducted to compare the bioavailability of capsule and suspension oral formulations vs. an intravenous formulations.
The standard curve was prepared from 1 to 2,000 ng/mL. QC samples were prepared at […]. Dilution QCs were prepared at 10-fold dilution. Deuterated (d6) I-1 (compound 1-7) was used as an internal standard. A 50 μL aliquot of sample was added to 150 μL of cold internal standard in acetonitrile to effect protein precipitation. The resulting supernatants were analyzed by LCMS. Diluted sample data was utilized only for over-the-curve results.
Briefly, 9 male non-naïve beagle dogs were assigned in groups of 3 to 3 dose groups. Group 1 was dosed 3 mg/kg by the intravenous route in a vehicle of 20% sulfobutylether-β-cyclodextrin (SBECD). Group 2 was dosed 10 mg/kg by the oral gavage route in a vehicle of 0.5% methylcellulose (MC). Group 3 was dosed with 100 mg capsules.
The I-1 100 mg capsules are manufactured as a non-sterile spray dried, granulated powder blend. The blend is then filled into capsules for oral delivery. The capsules are packaged in high-density polyethylene bottles. The quantitative composition of the I-1 100 mg capsule is presented above in Table B.
Procedure: (PO) gavage: formulations will be administered via a rubber oral gavage tube followed by a 10 mL flush with drinking water. (PO) tablet: tablets will be administered orally by placing the tablet in the back of the throat followed by a 10 mL flush with water.
Frequency: Pre-dose, 5, 15, 30 min, 1, 2, 4, 8, and 12 hrs post-dose (IV); pre-dose, 15, 30 min, 1, 2, 4, 8, and 12 hrs post-dose (PO by gavage and PO by capsule).
Blood collection: each blood sample will be collected from the dog's jugular vein or other accessible vein via direct venepuncture, placed into a pre-labeled tube containing K2EDTA and kept on ice until centrifugation.
Plasma preparation and storage: Certifuged at 4 C at 3,000× for 5 mm. Stored in a freezer until analysed.
Pharmacokinetics package PKSolver2.0™ has been validated against WinNonLin™ as a tool for non-GLP studies and was used to process the pharmacokinetic data.
For each route, the average data were processed with non-compartmental, one compartment, and two compartment models. The models were assessed for goodness of fit and the accuracy of the model to assess the biphasic data, with either a) no weighting, b) 1/concentration observed, or c) 1/concentration observed squared. 1/concentration predicted, and 1/concentration predicted squared weightings were also assessed for best fit. […] The zeros were averaged with the 71.5 value for a resulting average of 23.8. For the In Group 2 (PO Gavage) subject 3 experienced 30 mL of emesis, so the dose assigned to that subject was 7.46. In all cases, the subjects were modelled individually, and the individual PK parameters were averaged to provide final parameters.
For group 1 (intravenous) the final model selected was a two compartment model with 1/concentration observed squared weighting.
For group 2 (oral gavage) the final model was a two compartment extravascular model with 1/concentration predicted squared weighting.
For group 3 (oral capsule) the final model was a one compartment extravascular model with a lag time and no weighting. […] The body weight of each animal was used to assign a mg/kg dose to each individual. Subject 1 was dosed at 7.69 mg/kg. Subject 2 was 6.94 mg/kg, and Subject 3 was 6.99 mg/kg.

[1] = oral, 7 mg/kg, Group 3: PO Capsule 7 mg/kg, Subject 1
[2] = oral, 7 mg/kg, Group 3: PO Capsule 7 mg/kg, Subject 2
[3] = oral, 7 mg/kg, Group 3: PO Capsule 7 mg/kg, Subject 3
[4] = oral, 7 mg/kg, Group 3: PO Capsule 7 mg/kg, Average
[5] = oral, 7.2 mg/kg, 100 mg Capsule, average dose 7.2 mg/kg, Average
[6] = po, 7.2 mg/kg, 100 mg Capsule, average dose 7.2 mg/kg, Average
[7] = po, 7.2 mg/kg, 100 mg Capsule, average dose 7.2 mg/kg, Subj1
[8] = po, 7.2 mg/kg, 100 mg Capsule, average dose 7.2 mg/kg, Subj2
[9] = po, 7.2 mg/kg, 100 mg Capsule, average dose 7.2 mg/kg, Subj3
[10] = po, 10 mg/kg, Group 2: PO Gavage 10 mg/kg, Average
[11] = po, 10 mg/kg, Group 2: PO Gavage 10 mg/kg, Subject 1
[12] = po, 10 mg/kg, Group 2: PO Gavage 10 mg/kg, Subject 2
[13] = po, 10 mg/kg, Group 2: PO Gavage 10 mg/kg, Subject 3
[14] = po, 10 mg/kg, Oral Gavage 0.5% Methylcellulose 10 mg/kg, Average
[15] = po, 10 mg/kg, Oral Gavage 0.5% Methylcellulose 10 mg/kg, Subj1
[16] = po, 10 mg/kg, Oral Gavage 0.5% Methylcellulose 10 mg/kg, Subj2
[17] = po, 10 mg/kg, Oral Gavage 0.5% Methylcellulose 10 mg/kg, Subj3

Question: For `CC(C)(O)c1nc2ccccc2cc1N` [I-1], which concentration at 4 h [1] is on record?
Answer: Its concentration at 4 h is 1070 ng/mL.

Question: What about the concentration at 4 h [2] of the same compound?
Answer: Its concentration at 4 h is 736 ng/mL.

Question: What about the concentration at 4 h [3] of the same compound?
Answer: The concentration at 4 h was 1150 ng/mL.

Question: What about the concentration at 8 h [4] of the same compound?
Answer: Its concentration at 8 h is 223 ng/mL.

Question: What about the concentration at 8 h [1] of the same compound?
Answer: The concentration at 8 h was 195 ng/mL.

Question: And the concentration at 8 h [2]?
Answer: Its concentration at 8 h is 147 ng/mL.

Question: And the concentration at 8 h [3]?
Answer: The concentration at 8 h was 327 ng/mL.

Question: And the concentration at 12 h [4]?
Answer: Its concentration at 12 h is 94.5 ng/mL.

Question: What about the concentration at 12 h [1] of the same compound?
Answer: The concentration at 12 h was 58.7 ng/mL.

Question: What about the concentration at 12 h [2] of the same compound?
Answer: Its concentration at 12 h is 58 ng/mL.

Question: And the concentration at 12 h [3]?
Answer: The concentration at 12 h was 167 ng/mL.

Question: And the Tmax [5]?
Answer: Its Tmax is 2.37 h.

Question: And the bioavailability [5]?
Answer: Its bioavailability is 83%.

Question: And the concentration at 0.25 h (oral, 100 mg, Group 3: PO Capsule 7 mg/kg, Average)?
Answer: The concentration at 0.25 h was 23.8 ng/mL.

Question: What about the concentration at 0.25 h (oral, 100 mg, Group 3: PO Capsule 7 mg/kg, Subject 2) of the same compound?
Answer: Its concentration at 0.25 h is 71.5 ng/mL.

Question: And the AUC(0-inf) [6]?
Answer: The AUC(0-inf) was 8170 ng·h/mL.

Question: And the AUC(0-t) [6]?
Answer: Its AUC(0-t) is 8080 ng·h/mL.

Question: What about the Cmax [6] of the same compound?
Answer: The Cmax was 1700 ng/mL.

Question: What about the half-life [6] of the same compound?
Answer: The half-life was 1.33 h.

Question: What about the AUC(0-inf) [7] of the same compound?
Answer: The AUC(0-inf) was 7350 ng·h/mL.

Question: And the AUC(0-t) [7]?
Answer: The AUC(0-t) was 7240 ng·h/mL.

Question: And the Cmax [7]?
Answer: The Cmax was 1390 ng/mL.

Question: What about the Tmax [7] of the same compound?
Answer: Its Tmax is 2.57 h.

Question: And the half-life [7]?
Answer: The half-life was 1.38 h.

Question: What about the AUC(0-inf) [8] of the same compound?
Answer: The AUC(0-inf) was 5610 ng·h/mL.

Question: What about the AUC(0-t) [8] of the same compound?
Answer: The AUC(0-t) was 5490 ng·h/mL.

Question: And the Cmax [8]?
Answer: Its Cmax is 986 ng/mL.

Question: And the Tmax [8]?
Answer: The Tmax was 2.37 h.

Question: And the half-life [8]?
Answer: Its half-life is 1.49 h.

Question: What about the AUC(0-inf) [9] of the same compound?
Answer: Its AUC(0-inf) is 11600 ng·h/mL.

Question: And the AUC(0-t) [9]?
Answer: The AUC(0-t) was 11500 ng·h/mL.

Question: And the Cmax [9]?
Answer: Its Cmax is 2730 ng/mL.

Question: What about the Tmax [9] of the same compound?
Answer: Its Tmax is 2.16 h.

Question: What about the half-life [9] of the same compound?
Answer: Its half-life is 1.1 h.

Question: What about the concentration at 0.25 h [10] of the same compound?
Answer: The concentration at 0.25 h was 2480 ng/mL.

Question: What about the concentration at 0.25 h [11] of the same compound?
Answer: Its concentration at 0.25 h is 3360 ng/mL.

Question: And the concentration at 0.25 h [12]?
Answer: The concentration at 0.25 h was 2760 ng/mL.

Question: And the concentration at 0.25 h [13]?
Answer: Its concentration at 0.25 h is 1310 ng/mL.

Question: And the concentration at 0.5 h [10]?
Answer: Its concentration at 0.5 h is 4320 ng/mL.

Question: What about the concentration at 0.5 h [11] of the same compound?
Answer: Its concentration at 0.5 h is 5400 ng/mL.

Question: And the concentration at 0.5 h [12]?
Answer: Its concentration at 0.5 h is 4290 ng/mL.

Question: And the concentration at 0.5 h [13]?
Answer: Its concentration at 0.5 h is 3260 ng/mL.

Question: What about the concentration at 1 h [10] of the same compound?
Answer: The concentration at 1 h was 2700 ng/mL.

Question: And the concentration at 1 h [11]?
Answer: Its concentration at 1 h is 2970 ng/mL.

Question: And the concentration at 1 h [12]?
Answer: Its concentration at 1 h is 2610 ng/mL.

Question: What about the concentration at 1 h [13] of the same compound?
Answer: The concentration at 1 h was 2520 ng/mL.

Question: And the concentration at 2 h [10]?
Answer: The concentration at 2 h was 1420 ng/mL.

Question: And the concentration at 2 h [11]?
Answer: The concentration at 2 h was 1890 ng/mL.

Question: What about the concentration at 2 h [12] of the same compound?
Answer: The concentration at 2 h was 1470 ng/mL.

Question: What about the concentration at 2 h [13] of the same compound?
Answer: The concentration at 2 h was 908 ng/mL.

Question: And the concentration at 4 h [10]?
Answer: The concentration at 4 h was 787 ng/mL.

Question: And the concentration at 4 h [11]?
Answer: Its concentration at 4 h is 909 ng/mL.

Question: And the concentration at 4 h [12]?
Answer: Its concentration at 4 h is 909 ng/mL.

Question: And the concentration at 4 h [13]?
Answer: The concentration at 4 h was 541 ng/mL.

Question: And the concentration at 8 h [10]?
Answer: The concentration at 8 h was 157 ng/mL.

Question: And the concentration at 8 h [11]?
Answer: The concentration at 8 h was 131 ng/mL.

Question: And the concentration at 8 h [12]?
Answer: The concentration at 8 h was 233 ng/mL.

Question: And the concentration at 8 h [13]?
Answer: The concentration at 8 h was 108 ng/mL.

Question: What about the concentration at 12 h [10] of the same compound?
Answer: Its concentration at 12 h is 45.1 ng/mL.

Question: And the concentration at 12 h [11]?
Answer: Its concentration at 12 h is 28.1 ng/mL.

Question: What about the concentration at 12 h [12] of the same compound?
Answer: Its concentration at 12 h is 59.1 ng/mL.

Question: What about the concentration at 12 h [13] of the same compound?
Answer: The concentration at 12 h was 48.1 ng/mL.

Question: What about the AUC(0-inf) [14] of the same compound?
Answer: Its AUC(0-inf) is 9550 ng·h/mL.

Question: And the AUC(0-t) [14]?
Answer: The AUC(0-t) was 9360 ng·h/mL.

Question: And the Cmax [14]?
Answer: Its Cmax is 3560 ng/mL.

Question: And the Tmax [14]?
Answer: The Tmax was 0.518 h.

Question: What about the half-life [14] of the same compound?
Answer: The half-life was 3.02 h.

Question: And the bioavailability [14]?
Answer: Its bioavailability is 75%.

Question: And the AUC(0-inf) [15]?
Answer: The AUC(0-inf) was 11200 ng·h/mL.

Question: What about the AUC(0-t) [15] of the same compound?
Answer: The AUC(0-t) was 11100 ng·h/mL.

Question: What about the Cmax [15] of the same compound?
Answer: Its Cmax is 4350 ng/mL.

Question: And the Tmax [15]?
Answer: The Tmax was 0.459 h.

Question: And the half-life [15]?
Answer: The half-life was 2.85 h.

Question: What about the AUC(0-inf) [16] of the same compound?
Answer: Its AUC(0-inf) is 10100 ng·h/mL.

Question: What about the AUC(0-t) [16] of the same compound?
Answer: The AUC(0-t) was 9910 ng·h/mL.

Question: And the Cmax [16]?
Answer: The Cmax was 3670 ng/mL.

Question: And the Tmax [16]?
Answer: Its Tmax is 0.46 h.

Question: And the half-life [16]?
Answer: The half-life was 2.13 h.

Question: And the AUC(0-inf) [17]?
Answer: The AUC(0-inf) was 7330 ng·h/mL.

Question: And the AUC(0-t) [17]?
Answer: The AUC(0-t) was 7050 ng·h/mL.

Question: What about the Cmax [17] of the same compound?
Answer: The Cmax was 2650 ng/mL.

Question: What about the Tmax [17] of the same compound?
Answer: The Tmax was 0.635 h.

Question: What about the half-life [17] of the same compound?
Answer: The half-life was 4.08 h.
